{
  "source": "patent US20170127674A1",
  "about": "“MICROPROPAGATION OF ALEXANDRIAN LAUREL (DANAE RACEMOSA L)” (North Carolina A&T State University, priority 2012, published 2017)",
  "format_in_all_cases": "in vivo, Danae racemosa L.",
  "key": {"[1]": {"system": "Alexandrian laurel seedlings", "test": "Culture of germinated seeds in BA-supplemented Woody Plant Medium", "description": "All cultures described herein were transferred onto fresh media every 4 weeks and incubated in a plant tissue culture grade growth chamber under a 16-h photoperiod and a photo flux density of 37.6±4.8 μmol s^−1m^−2 light per day provided by cool white fluorescent tubes at 23±0.1° C., unless otherwise noted. At 10 weeks, a group of germinated seeds from Example 1 was removed from agar medium containing GA3 and transferred to a supplemented WPM culture further comprising BA (at 1.0, 2.0, or 3.0 mg/L, respectively 4.44, 8.88, or 13.32 μM)."}, "Alexandrian laurel seed": {"system": "Alexandrian laurel seed", "test": "In vitro germination of seeds in agar medium containing GA3", "description": "Seeds were purchased (Gethsemane Garden and Landscape Services, Inc., Greensboro, N.C.) and disinfected in a 20% bleach solution plus 20 drops Tween-20 per liter for 20 minutes and then rinsed immediately 3 times with sterile purified water.\nThe disinfected seeds were subsequently transferred to test tubes containing agar medium and 10 ppm GA3. The medium pH was adjusted to 5.8 with 1N KOH or 1 N HCl. The culture medium was sterilized by autoclaving at 121° C. (106 kPa) for 20 minutes.\n(§1) All cultures described herein were transferred onto fresh media every 4 weeks and incubated in a plant tissue culture grade growth chamber under a 16-h photoperiod and a photo flux density of 37.6±4.8 μmol s^−1m^−2 light per day provided by cool white fluorescent tubes at 23±0.1° C., unless otherwise noted.\nThe seeds were prepared according to Materials and Methods above.\nThe micropropagated plantlets were then potted in soil and transferred to a greenhouse."}, "[2]": {"system": "Alexandrian laurel seedlings", "test": "Culture of germinated seeds in TDZ-supplemented Woody Plant Medium", "description": "as §1\nAt 10 weeks, a group of germinated seeds from Example 1 was removed from agar medium containing GA3 and transferred to a supplemented WPM culture further comprising TDZ (at 1.0, 2.0, or 3.0 mg/L, respectively 4.54, 9.08, or 13.62 μM)."}},
  "data": [
    {"smiles": "c1ccc(CNc2ncnc3nc[nH]c23)cc1", "note": "[BA, 6-benzylamino purine]", "values": [
      {"measurement": "seedling development", "setting": "[1]; early growth after the initial seed germination in the presence of BA", "value": "balanced seedling development by simultaneously promoting shoot growth and slowing down root growth"},
      {"measurement": "shoot and root growth of young seedlings compared to Example 1A", "setting": "[1]; supplemented WPM with BA at 1.0, 2.0 or 3.0 mg/L, about 4 weeks (FIG. 2)", "value": "more balanced shoot and root growth"}
    ]},
    {"smiles": "C=C1C[C@]23C[C@@]1(O)CC[C@H]2[C@@]12C=C[C@H](O)[C@@](C)(C(=O)O1)[C@H]2[C@@H]3C(=O)O", "note": "[GA3, gibberellic acid]", "values": [
      {"measurement": "root and shoot growth of germinated seeds", "setting": "Alexandrian laurel seed; agar medium containing GA3, at 10 weeks (FIG. 1)", "value": "a lot of root growth and little shoot growth"},
      {"measurement": "seed germination", "setting": "Alexandrian laurel seed; agar medium with 10 ppm GA3, about 10 weeks", "value": "a majority of the seeds had germinated"}
    ]},
    {"smiles": "O=C(Nc1ccccc1)Nc1cnns1", "note": "[TDZ, [1-phenyl-3-(1,2,3-thidiazol-5-yl)urea]]", "values": [
      {"measurement": "appearance of root growth points", "setting": "[2]; after 50 days of treatment in TDZ supplemented WPM", "value": "root growth points began to turn brown"},
      {"measurement": "shoots per seed", "setting": "[2]; early growth after the initial seed germination in the presence of TDZ", "value": "5-10 shoots per seed"},
      {"measurement": "shoot formation", "setting": "[2]; supplemented WPM with TDZ at 1.0, 2.0 or 3.0 mg/L, about 50 days (FIG. 3)", "value": "multiple shoots from each seed"}
    ]}
  ]
}
